Source: ChEMBL document CHEMBL4219265, “Piperlongumine derivative, CG-06, inhibits STAT3 activity by direct binding to STAT3 and regulating the reactive oxygen species in DU145 prostate carcinoma cells” (Bioorg Med Chem Lett, 2018)

Tests used:
LNCaP [1] = assay: Growth inhibition of human LNCAP cells after 48 hrs by WST-1 assay; format: functional
DU-145 [2] = assay: Growth inhibition of human DU145 cells after 48 hrs by WST-1 assay; format: functional; settings: DU-145, 48 h
PC-3 [3] = assay: Growth inhibition of human PC3 cells after 48 hrs by WST-1 assay; format: functional; settings: PC-3, 48 h
[4] = target: T1, Signal transducer and activator of transcription 3 (Homo sapiens, UniProt P40763); assay: Inhibition of STAT3 phosphorylation in human DU145 cells assessed as ratio of phosphorylated STAT3 protein level to GAPDH protein level at […] after 1 hr by Western blot analysis (reference value: 1); format: cell-based
T1 sequence (P40763 whole entry): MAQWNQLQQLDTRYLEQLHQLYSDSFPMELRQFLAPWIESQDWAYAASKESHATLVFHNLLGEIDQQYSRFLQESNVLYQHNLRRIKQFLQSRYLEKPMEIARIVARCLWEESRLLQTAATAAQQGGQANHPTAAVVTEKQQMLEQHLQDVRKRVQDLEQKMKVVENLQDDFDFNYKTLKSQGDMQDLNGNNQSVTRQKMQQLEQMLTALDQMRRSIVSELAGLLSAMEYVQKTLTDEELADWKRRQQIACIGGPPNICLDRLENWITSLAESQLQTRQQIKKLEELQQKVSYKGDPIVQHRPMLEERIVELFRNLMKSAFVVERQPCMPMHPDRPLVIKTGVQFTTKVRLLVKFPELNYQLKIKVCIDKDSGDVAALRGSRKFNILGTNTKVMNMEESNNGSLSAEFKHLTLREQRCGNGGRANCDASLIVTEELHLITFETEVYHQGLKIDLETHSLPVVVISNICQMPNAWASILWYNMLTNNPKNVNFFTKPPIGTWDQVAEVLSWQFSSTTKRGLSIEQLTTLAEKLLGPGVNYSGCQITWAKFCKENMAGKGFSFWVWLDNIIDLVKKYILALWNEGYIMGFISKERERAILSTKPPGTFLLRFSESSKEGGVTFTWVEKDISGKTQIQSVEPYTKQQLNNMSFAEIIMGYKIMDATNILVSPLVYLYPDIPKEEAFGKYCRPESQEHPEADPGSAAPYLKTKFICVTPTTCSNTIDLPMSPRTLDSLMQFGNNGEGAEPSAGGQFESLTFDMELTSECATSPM

DU-145 [5] = assay: Effect on total STAT3 protein level in human DU145 cells assessed as ratio of ERK1/2 protein level to GAPDH protein level at 2 mM after 1 hr by Western blot analysis (reference value: 1); format: ADME, cell-based; settings: du-145, 1 h, 2000 µM
DU-145 [6] = assay: Effect on total STAT3 protein level in human DU145 cells assessed as ratio of STAT3 protein level to GAPDH protein level at 3 uM after 24 hrs by Western blot analysis (reference value: 1); format: ADME, cell-based; settings: du-145, 24 h
DU-145 [7] = assay: Effect on total STAT3 protein level in human DU145 cells assessed as ratio of STAT3 protein level to GAPDH protein level at 7 uM after 24 hrs by Western blot analysis (reference value: 1); format: ADME, cell-based; settings: du-145, 24 h
[8] = target: T1, Signal transducer and activator of transcription 3; assay: Inhibition of STAT3 phosphorylation at Tyr705 residues in human DU145 cells assessed as ratio of phosphorylated STAT3 protein level to GAPDH protein level at 5 uM after 24 hrs by Western blot analysis (reference value: 1); format: cell-based
LNCaP [9] = assay: Growth inhibition of human LNCAP cells after 24 to 48 hrs by WST-1 assay; format: functional
[10] = target: T1, Signal transducer and activator of transcription 3; assay: Inhibition of STAT3 phosphorylation at Tyr705 residues in human DU145 cells assessed as ratio of phosphorylated STAT3 protein level to GAPDH protein level at 10 uM after 24 hrs by Western blot analysis (reference value: 1); format: cell-based
[11] = target: T1, Signal transducer and activator of transcription 3; assay: Inhibition of STAT3 phosphorylation at Tyr705 residues in human DU145 cells after 24 hrs by Western blot analysis; format: cell-based
DU-145 [12] = assay: Effect on total STAT3 protein level in human DU145 cells assessed as ratio of STAT3 protein level to GAPDH protein level at 5 uM after 24 hrs by Western blot analysis (reference value: 1); format: ADME, cell-based; settings: du-145, 24 h
[13] = target: T1, Signal transducer and activator of transcription 3; assay: Inhibition of STAT3 phosphorylation at Tyr705 residues in human DU145 cells assessed as ratio of phosphorylated STAT3 protein level to GAPDH protein level at 3 uM after 24 hrs by Western blot analysis (reference value: 1); format: cell-based
DU-145 [14] = assay: Effect on total STAT3 protein level in human DU145 cells assessed as ratio of STAT3 protein level to GAPDH protein level at 1 uM after 24 hrs by Western blot analysis (reference value: 1); format: ADME, cell-based; settings: du-145, 24 h
[15] = target: T1, Signal transducer and activator of transcription 3; assay: Inhibition of STAT3 phosphorylation at Tyr705 residues in human DU145 cells assessed as ratio of phosphorylated STAT3 protein level to GAPDH protein level at 7 uM after 24 hrs by Western blot analysis (reference value: 1); format: cell-based
[16] = target: T1, Signal transducer and activator of transcription 3; assay: Inhibition of STAT3 phosphorylation at Tyr705 residues in human DU145 cells by Western blot analysis; format: cell-based
PC-3 [17] = assay: Growth inhibition of human PC3 cells after 24 to 48 hrs by WST-1 assay; format: functional
[18] = target: T1, Signal transducer and activator of transcription 3; assay: Inhibition of STAT3 phosphorylation at Tyr705 residues in human DU145 cells assessed as ratio of phosphorylated STAT3 protein level to GAPDH protein level at 1 uM after 24 hrs by Western blot analysis (reference value: 1); format: cell-based
DU-145 [19] = assay: Effect on total STAT3 protein level in human DU145 cells assessed as ratio of STAT3 protein level to GAPDH protein level at 10 uM after 24 hrs by Western blot analysis (reference value: 1); format: ADME, cell-based; settings: du-145, 24 h

Row | SMILES | GI50 (LNCaP [1]) [µM] | GI50 (DU-145 [2]) [µM] | GI50 (PC-3 [3]) [µM] | further results
1 | C=C(C)C(=O)N(C)C(=O)/C=C/c1cc(OC)c(OC)c(OC)c1 | > 10 | 5.6 | > 10 | –
2 | CC(=O)N[C@@H](CS)C(=O)O [ACETYLCYSTEINE] | – | – | – | Ratio [4]: 1; Ratio (DU-145 [5]): 0.8
3 | C#CCN(C(=O)/C=C/c1cc(OC)c(OC)c(OC)c1)C(=O)C(=C)C | > 10 | 2.3 | 7.3 | –
4 | COc1cc(/C=C/C(=O)N2CCC=CC2=O)cc(OC)c1OC [PIPLARTINE] | 9.2 | 7.1 | > 10 | Ratio (DU-145 [6]): 1.1; Ratio (DU-145 [7]): 1; Ratio [8]: 0.7; GI50 (LNCaP [9]): > 10 µM; Ratio [10]: 0.3; IC50 [11]: 7 µM; Ratio (DU-145 [12]): 1; Ratio [13]: 0.7; Ratio (DU-145 [14]): 1; Ratio [15]: 0.5; inhibition [16]: Dose-dependent effect; GI50 (PC-3 [17]): > 10 µM; Ratio [18]: 0.8; Ratio (DU-145 [19]): 0.9

Continued by falling GI50 (LNCaP [1]), values first:

Row | GI50 (LNCaP [1]) [µM] | GI50 (DU-145 [2]) [µM] | GI50 (PC-3 [3]) [µM] | SMILES | further results
5 | 10 | 4.2 | > 10 | C=C(C)C(=O)N(Cc1ccccc1C)C(=O)/C=C/c1cc(OC)c(OC)c(OC)c1 | –
6 | 10 | 8.6 | 8.2 | C=C(C)C(=O)NC(=O)/C=C/c1cc(OC)c(OC)c(OC)c1 | –
7 | 10 | 5.7 | > 10 | C=C(C)C(=O)N(Cc1cccc(Br)c1)C(=O)/C=C/c1cc(OC)c(OC)c(OC)c1 | –
